Source: patent US7939542B2, “Cinnamaldehyde derivatives having improved solubility in water, a method for preparing the same and a pharmaceutical composition comprising the same” (Korea Research Institute of Bioscience and Biotechnology, priority 2008, dated 2011)

Columns and labels:
[1] = Solubility (physicochemical properties); details: for Solubility: Insoluble: solvents in which the compound is insoluble; for Solubility: Soluble: solvents in which the compound is soluble
[2] = tested on: human colon carcinoma SW620 cells; assay: Cell cycle analysis by flow cytometry (PI staining); assay type: cell-based; details: 48 hours
Description: In practice, when human colon carcinoma SW620 cells are dosed with 10 to 20 μM of the compound of Chemical Formula 1, the compound induces a cell cycle arrest in the G2/M phase, leading to cell growth inhibition. The inhibition of the growth of cancer cells may be tested as follows. In brief, human colon carcinoma SW620 cells were dosed with the compound dissolved in DMSO. After 48 hrs, nuclear DNA was stained with propidium iodide. The stained cells were analyzed to determine the cell cycle using a FACSCalibur cytometer (Becton-Dickinson, San Jose, Calif., USA). The proportions of cells in G1, S and G2/M phases were determined using a Becton-Dickinson Modifit cell-cycle analysis program and expressed as percentages.
For flow cytometric analysis, human colon carcinoma SW620 cells were plated in T25 flasks (containing 7.5 ml of culture medium) and cultured in RPMI 1640 and DMEM media, each of which was supplemented with 10% FBS, in an incubator at 37° C. for 12 hrs. Then, as a control, DMSO was added to the culture medium at a final concentration of 0.1% (7.5 μl). As compound treatment groups, 7.5 μl of each of compounds dissolved in DMSO at various concentrations was added to the culture medium. After 48 hours, control (DMSO) and compound-treated cells were harvested and subjected to flow cytometric analysis.
After the culture media were removed from flasks, cells were trypsinized and centrifuged at 300 g for 5 min. The collected cells were washed with phosphate buffer twice to remove culture media. The cells were then fixed in 3 ml of 70% ethanol at −20° C. for 12 hrs. The fixed cells were centrifuged at 300 g for 5 min and washed with cold PBS twice to remove remaining ethanol. The washed cells were resuspended in 500 μl of PBS, and treated with 50 μl of 100 μg/ml RNase A at 37° C. for 30 min. Then, cells were incubated in 10 μl of 1 mg/ml propidium iodide (PI) in PBS for DNA staining. The cell cycles of 20,000 stained cells were analyzed using a FACSCalibur cytometer (Becton-Dickinson, San Jose, Calif., USA). Cell cycle fractions were quantified using a Becton-Dickinson Modifit cell-cycle analysis program, and the distribution of cells in G1, S and G2/M phases was expressed as percentages.

[3] = tested on: human colon carcinoma HT-29 cells; assay: Anticancer activity upon oral administration to tumor-xenografted nude mice; assay type: in vivo; details: HT-29 xenograft, 10 mg/kg orally once every day, Day 18, p<0.001
Description: Tumor diameter was measured in three planes with a vernier caliper. Tumor volume (V) was calculated using the following Equation 1. Tumor volume=(Length×Width×Height)/2 [Equation 1]
On Day 18 of tumor transplantation, animals were sacrificed, and tumors were excised and weighed.

[4] = Body weight change in tumor-xenografted nude mice; details: positive control 2 mg/kg, 18 days, p<0.001
Description: Nude mice were divided into three groups: a compound administration group, a vehicle control group and a positive control group. A 0.3-ml aliquot of human colon carcinoma HT-29 cells (3×10^7 cells/ml) was injected subcutaneously into the right axilla between the scapular region and the chest wall of mice. From the day (Day 1) after tumor transplantation to the day before sacrifice, the compound of Chemical Formula 6 was administered orally at a dose of 10 mg/kg once every day.
In order to investigate the clinical signs of drug toxicity, animals were monitored for change in body weight about three times a week during the test period.

SMILES: COCC(=O)Oc1ccccc1/C=C/C=O [Compound of Formula 2]
- Solubility: Insoluble [1]: Hexane
- Solubility: Soluble [1]: Alcohol, DMSO
- Water solubility [1]: 320 µM
- Cell distribution (%) G0-G1 ([2]; SW620, 20 μM): 33.00%
- Cell distribution (%) G2-M ([2]; SW620, 20 μM): 49.94%
- Cell distribution (%) S ([2]; SW620, 20 μM): 17.06%

SMILES: O=C/C=C/c1ccccc1OCc1ccncc1 [Compound of Formula 3]
- Solubility: Insoluble [1]: Hexane, H2O
- Solubility: Soluble [1]: Alcohol, DMSO
- Cell distribution (%) G0-G1 ([2]; SW620, 20 μM): 39.80%
- Cell distribution (%) G2-M ([2]; SW620, 20 μM): 33.63%
- Cell distribution (%) S ([2]; SW620, 20 μM): 26.57%

SMILES: CN1CCN(C(=O)Oc2ccccc2/C=C/C=O)CC1 [Compound of Formula 4]
- Solubility: Insoluble [1]: Hexane, H2O
- Solubility: Soluble [1]: Alcohol, DMSO
- Cell distribution (%) G0-G1 ([2]; SW620, 30 μM): 37.50%
- Cell distribution (%) G2-M ([2]; SW620, 30 μM): 45.49%
- Cell distribution (%) S ([2]; SW620, 30 μM): 17.01%

SMILES: O=C/C=C/c1ccccc1OS(=O)(=O)c1ccccc1 [Compound of Formula 5]
- Solubility: Insoluble [1]: Hexane
- Solubility: Soluble [1]: Alcohol, DMSO
- Water solubility [1]: 600 µM
- Cell distribution (%) G0-G1 ([2]; SW620, 20 μM): 36.01%
- Cell distribution (%) G2-M ([2]; SW620, 20 μM): 45.94%
- Cell distribution (%) S ([2]; SW620, 20 μM): 18.05%

SMILES: Cl.O=C/C=C/c1ccccc1OCc1ccncc1 [Compound of Formula 6]
- Solubility: Insoluble [1]: Hexane, acetone
- Solubility: Soluble [1]: Alcohol, H2O
- tumor growth inhibitory effect [3]: 30.7%
- Cell distribution (%) G0-G1 ([2]; SW620, 20 μM): 39.80%
- Cell distribution (%) G2-M ([2]; SW620, 20 μM): 33.63%
- Cell distribution (%) S ([2]; SW620, 20 μM): 26.57%
- Cell distribution (%) G0-G1 ([2]; SW620, 40 μM): 43.85%
- Cell distribution (%) G2-M ([2]; SW620, 40 μM): 41.31%
- Cell distribution (%) S ([2]; SW620, 40 μM): 14.84%

SMILES: CN1CCN(C(=O)Oc2ccccc2/C=C/C=O)CC1.Cl [Compound of Formula 7]
- Solubility: Insoluble [1]: Hexane, acetone
- Solubility: Soluble [1]: Alcohol, H2O
- Cell distribution (%) G0-G1 ([2]; SW620, 30 μM): 35.11%
- Cell distribution (%) G2-M ([2]; SW620, 30 μM): 47.83%
- Cell distribution (%) S ([2]; SW620, 30 μM): 17.06%

SMILES: COc1cccc2c1C(=O)c1c(O)c3c(c(O)c1C2=O)C[C@@](O)(C(=O)CO)C[C@@H]3O[C@H]1C[C@H](N)[C@H](O)[C@H](C)O1 [adriamycin]
- weight loss [4]: 10.3%
